Test system: Wnt activity (Sp5-Luc reporter, SW480 colon carcinoma cells)
Assay: Wnt activity screening assay, Sp5-Luc reporter gene in SW480 cells
Type: cell-based
Details: Homo sapiens; for inhibition at 10 µM: given for EC50 >10 μM, read-out: percent inhibition at 10 μM; for EC50: overnight incubation
Description: The screening assay for Wnt activity is described as follows. Reporter cell lines can be generated by stably transducing cancer cell lines (e.g., colon cancer) or primary cells (e.g., IEC-6 intestinal cells) with a lentiviral construct that includes a Wnt-responsive promoter driving expression of the firefly luciferase gene.
SW480 colon carcinoma cells were transduced with a lentiviral vector expressing luciferase with a human Sp5 promoter consisting of a sequence of eight TCF/LEF binding sites. SW480 cells stably expressing the Sp5-Luc reporter gene and a hygromycin resistance gene were selected by treatment with 150 μg/mL of hygromycin for 7 days. These stably transduced SW480 cells were expanded in cell culture and used for all further screening activities. Each compound was dissolved in DMSO as a 10 mM stock and used to prepare compound source plates. Serial dilution (1:3, 10-point dose-response curves starting from 10 μM) and compound transfer was performed using the ECHO 550 (Labcyte, Sunnyvale, Calif.) into 384-well white solid bottom assay plates (Greiner Bio-One) with appropriate DMSO backfill for a final DMSO concentration of 0.1%. For Sp5-Luc reporter gene assays, the cells were plated at 4,000 cells/well in 384-well plates with medium containing 1% fetal bovine serum and incubated overnight at 37° C. and 5% CO2. Following incubation, 20 μl of BrightGlo luminescence reagent (Promega) was added to each well of the 384-well assay plates. The plates were placed on an orbital shaker for 2 min and then luminescence was quantified using the Envision (Perkin Elmer) plate reader. Readings were normalized to DMSO only treated cells, and normalized activities were utilized for EC50 calculations using the dose-response log (inhibitor) vs. response—variable slope (four parameters) nonlinear regression feature available in GraphPad Prism 5.0 (or Dotmatics). For EC50 of >10 μM, the percent inhibition at 10 μM is provided.

SMILES	inhibition at 10 µM	EC50
Oc1cncc(-c2cnc3[nH]nc(-c4cc5c(-c6ccc(F)cc6)ccnc5[nH]4)c3c2)c1 [Compound 533, 5-(3-(4-(4-Fluorophenyl)-1H-pyrrolo[2,3-b]pyridin-2-yl)-1H-pyrazolo[3,4-b]pyridin-5-yl)pyridin-3-ol]	3.4%	> 10 µM
CN(C)CCOc1cncc(-c2cnc3[nH]nc(-c4cc5c(-c6cccnc6)ccnc5[nH]4)c3c2)c1 [Compound 563, N,N-dimethyl-2-((5-(3-(4-(pyridin-3-yl)-1H-pyrrolo[2,3-b]pyridin-2-yl)-1H-pyrazolo[3,4-b]pyridin-5-yl)pyridin-3-yl)oxy)ethan-1-amine]	20.6%	> 10 µM
CC(C)C(=O)Nc1cncc(-c2cnc3[nH]nc(-c4cc5c(-c6ccccc6F)ccnc5[nH]4)c3c2)c1 [Compound 65, N-(5-(3-(4-(2-Fluorophenyl)-1H-pyrrolo[2,3-b]pyridin-2-yl)-1H-pyrazolo [3,4-b]pyridin-5-yl)pyridin-3-yl)isobutyramide]	30.8%	> 10 µM
CN1CCN(c2ccnc3[nH]c(-c4n[nH]c5ncc(-c6cncc(NC(=O)C7CCCCC7)c6)cc45)cc23)CC1 [Compound 247, N-(5-(3-(4-(4-Methylpiperazin-1-yl)-1H-pyrrolo[2,3-b]pyridin-2-yl)-1H-pyrazolo[3,4-b]pyridin-5-yl)pyridin-3-yl)cyclohexanecarboxamide]	6.4%	> 10 µM
CCCC(=O)Nc1cncc(-c2cnc3[nH]nc(-c4cc5c(N6CCCCC6)ccnc5[nH]4)c3c2)c1 [Compound 185, N-(5-(3-(4-(Piperidin-1-yl)-1H-pyrrolo[2,3-b]pyridin-2-yl)-1H-pyrazolo[3,4-b]pyridin-5-yl)pyridin-3-yl)butyramide]	10.9%	> 10 µM
O=C(Nc1cncc(-c2cnc3[nH]nc(-c4cc5c(-c6ccncc6)ccnc5[nH]4)c3c2)c1)C1CCCCC1 [Compound 135, N-(5-(3-(4-(Pyridin-4-yl)-1H-pyrrolo[2,3-b]pyridin-2-yl)-1H-pyrazolo[3,4-b]pyridin-5-yl)pyridin-3-yl)cyclohexanecarboxamide]	16.4%	> 10 µM
O=C(Nc1cncc(-c2cnc3[nH]nc(-c4cc5c(-c6cccs6)ccnc5[nH]4)c3c2)c1)C1CC1 [Compound 356, N-(5-(3-(4-(Thiophen-2-yl)-1H-pyrrolo[2,3-b]pyridin-2-yl)-1H-pyrazolo[3,4-b]pyridin-5-yl)pyridin-3-yl)cyclopropanecarboxamide]	–	6.37 µM
Fc1ccc(-c2ccnc3[nH]c(-c4n[nH]c5ncc(-c6cncnc6)cc45)cc23)cc1 [Compound 55, 3-(4-(4-Fluorophenyl)-1H-pyrrolo[2,3-b]pyridin-2-yl)-5-(pyrimidin-5-yl)-1H-pyrazolo[3,4-b]pyridine]	13.6%	> 10 µM
c1cnc2[nH]c(-c3n[nH]c4ncc(-c5ccncc5)cc34)cc2c1 [Compound 270, 5-(Pyridin-4-yl)-3-(1H-pyrrolo[2,3-b]pyridin-2-yl)-1H-pyrazolo[3,4-b]pyridine]	0%	> 10 µM
Fc1cccc(-c2ccnc3[nH]c(-c4n[nH]c5ncc(-c6cccnc6)cc45)cc23)c1 [Compound 4, 3-(4-(3-Fluorophenyl)-1H-pyrrolo[2,3-b]pyridin-2-yl)-5-(pyridin-3-yl)-1H-pyrazolo[3,4-b]pyridine]	7.6%	> 10 µM
CC(C)(C)C(=O)Nc1cncc(-c2cnc3[nH]nc(-c4cc5c(N6CCCCC6)ccnc5[nH]4)c3c2)c1 [Compound 176, N-(5-(3-(4-(Piperidin-1-yl)-1H-pyrrolo[2,3-b]pyridin-2-yl)-1H-pyrazolo[3,4-b]pyridin-5-yl)pyridin-3-yl)pivalamide]	5%	> 10 µM
CN(C)CCNc1cc(F)cc(-c2ccnc3[nH]c(-c4n[nH]c5ncc(-c6cncc(NC(=O)C7CCC7)c6)cc45)cc23)c1 [Compound 469, N-(5-(3-(4-(3-((2-(Dimethylamino)ethyl)amino)-5-fluorophenyl)-1H-pyrrolo [2,3-b]pyridin-2-yl)-1H-pyrazolo[3,4-b]pyridin-5-yl)pyridin-3-yl)cyclobutanecarboxamide]	47.5%	> 10 µM
c1cncc(-c2cnc3[nH]nc(-c4cc5c(-c6cccnc6)ccnc5[nH]4)c3c2)c1 [Compound 88, 5-(Pyridin-3-yl)-3-(4-(pyridin-3-yl)-1H-pyrrolo[2,3-b]pyridin-2-yl)-1H-pyrazolo[3,4-b]pyridine]	17%	> 10 µM
O=C(Nc1cncc(-c2cnc3[nH]nc(-c4cc5c(-c6cccc(F)c6)ccnc5[nH]4)c3c2)c1)c1ccccc1 [Compound 11, N-(5-(3-(4-(3-Fluorophenyl)-1H-pyrrolo[2,3-b]pyridin-2-yl)-1H-pyrazolo [3,4-b]pyridin-5-yl)pyridin-3-yl)benzamide]	10%	> 10 µM
CC(C)(C)CC(=O)Nc1cncc(-c2cnc3[nH]nc(-c4cc5c(-c6ccoc6)ccnc5[nH]4)c3c2)c1 [Compound 324, N-(5-(3-(4-(Furan-3-yl)-1H-pyrrolo[2,3-b]pyridin-2-yl)-1H-pyrazolo[3,4-b]pyridin-5-yl)pyridin-3-yl)-3,3-dimethylbutanamide]	4.2%	> 10 µM
O=C(Nc1cncc(-c2cnc3[nH]nc(-c4cc5c(-c6ccc(F)cc6)ccnc5[nH]4)c3c2)c1)C1CCCCC1 [Compound 51, N-(5-(3-(4-(4-Fluorophenyl)-1H-pyrrolo[2,3-b]pyridin-2-yl)-1H-pyrazolo [3,4-b]pyridin-5-yl)pyridin-3-yl)cyclohexanecarboxamide]	14.2%	> 10 µM
Cc1ncc(-c2cnc3[nH]nc(-c4cc5c(-c6cc(F)cc(NCCN(C)C)c6)ccnc5[nH]4)c3c2)n1C [Compound 781, N^1-(3-(2-(5-(1,2-Dimethyl-1H-imidazol-5-yl)-1H-pyrazolo[3,4-b]pyridin-3-yl)-1H-pyrrolo[2,3-b]pyridin-4-yl)-5-fluorophenyl)-N^2,N^2-dimethylethane-1,2-diamine]	–	4.46 µM
c1ccc(-c2cnc3[nH]nc(-c4cc5c(-c6ccncc6)ccnc5[nH]4)c3c2)nc1 [Compound 140, 5-(Pyridin-2-yl)-3-(4-(pyridin-4-yl)-1H-pyrrolo[2,3-b]pyridin-2-yl)-1H-pyrazolo[3,4-b]pyridine]	12.3%	> 10 µM
O=C(Nc1cncc(-c2cnc3[nH]nc(-c4cc5c(-c6ccncc6)ccnc5[nH]4)c3c2)c1)c1ccccc1 [Compound 123, N-(5-(3-(4-(Pyridin-4-yl)-1H-pyrrolo[2,3-b]pyridin-2-yl)-1H-pyrazolo[3,4-b]pyridin-5-yl)pyridin-3-yl)benzamide]	5.2%	> 10 µM
CC(C)CC(=O)Nc1cncc(-c2cnc3[nH]nc(-c4cc5c(-c6ccc(F)cc6)ccnc5[nH]4)c3c2)c1 [Compound 30, N-(5-(3-(4-(4-Fluorophenyl)-1H-pyrrolo[2,3-b]pyridin-2-yl)-1H-pyrazolo [3,4-b]pyridin-5-yl)pyridin-3-yl)-3-methylbutanamide]	11.9%	> 10 µM
CC(C)C(=O)Nc1cncc(-c2cnc3[nH]nc(-c4cc5c(-c6cccnc6)ccnc5[nH]4)c3c2)c1 [Compound 93, N-(5-(3-(4-(Pyridin-3-yl)-1H-pyrrolo[2,3-b]pyridin-2-yl)-1H-pyrazolo[3,4-b]pyridin-5-yl)pyridin-3-yl)isobutyramide]	15.4%	> 10 µM
Fc1cccc(-c2ccnc3[nH]c(-c4n[nH]c5ncc(-c6ccncc6)cc45)cc23)c1 [Compound 18, 3-(4-(3-Fluorophenyl)-1H-pyrrolo[2,3-b]pyridin-2-yl)-5-(pyridin-4-yl)-1H-pyrazolo[3,4-b]pyridine]	11.7%	> 10 µM
CN(C)CCNc1cc(F)cc(-c2ccnc3[nH]c(-c4n[nH]c5ncc(-c6cncc(NC(=O)C(C)(C)C)c6)cc45)cc23)c1 [Compound 456, N-(5-(3-(4-(3-((2-(Dimethylamino)ethyl)amino)-5-fluorophenyl)-1H-pyrrolo [2,3-b]pyridin-2-yl)-1H-pyrazolo[3,4-b]pyridin-5-yl)pyridin-3-yl)pivalamide]	42.4%	> 10 µM
c1cc(-c2cnc3[nH]nc(-c4cc5c(-c6ccncc6)ccnc5[nH]4)c3c2)ccn1 [Compound 130, 5-(Pyridin-4-yl)-3-(4-(pyridin-4-yl)-1H-pyrrolo[2,3-b]pyridin-2-yl)-1H-pyrazolo[3,4-b]pyridine]	6.3%	> 10 µM
O=C(Nc1cncc(-c2cnc3[nH]nc(-c4cc5c(-c6cccnc6)ccnc5[nH]4)c3c2)c1)C1CC1 [Compound 104, N-(5-(3-(4-(Pyridin-3-yl)-1H-pyrrolo[2,3-b]pyridin-2-yl)-1H-pyrazolo[3,4-b]pyridin-5-yl)pyridin-3-yl)cyclopropanecarboxamide]	0%	> 10 µM
